This passage reports Ki results from ChEMBL document CHEMBL1221213, “Biomimetic synthesis of the IDO inhibitors exiguamine A and B” (Nat Chem Biol, 2008).

This assay deals with Indoleamine 2,3-dioxygenase 1 (Homo sapiens, UniProt P14902). Kind of assay: Inhibition of human recombinant indoleamine-2,3-dioxygenase.
Sequence of Indoleamine 2,3-dioxygenase 1 (P14902 whole entry): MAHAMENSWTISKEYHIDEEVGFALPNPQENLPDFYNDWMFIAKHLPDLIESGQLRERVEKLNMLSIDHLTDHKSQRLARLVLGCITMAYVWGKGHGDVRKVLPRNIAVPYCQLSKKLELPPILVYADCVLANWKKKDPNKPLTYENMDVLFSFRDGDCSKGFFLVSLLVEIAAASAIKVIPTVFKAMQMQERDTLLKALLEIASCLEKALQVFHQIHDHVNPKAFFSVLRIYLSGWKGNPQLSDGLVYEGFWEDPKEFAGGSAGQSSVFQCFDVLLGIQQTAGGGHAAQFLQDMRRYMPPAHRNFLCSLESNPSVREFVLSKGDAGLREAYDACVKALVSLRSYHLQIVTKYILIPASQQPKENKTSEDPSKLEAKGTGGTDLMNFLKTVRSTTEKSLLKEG

For `CN(C)CCc1ccc(O)c(O)c1C1=C(C2C(=O)N(C)C(=O)N2C)C(=O)c2c(CCN)c[nH]c2C1=O` (configuration not stated), the Ki (as a rule, a measure of affinity in units of concentration, obtained from inhibition or displacement) stood at 0.08 µM.
As to `CN1C(=O)N(C)[C@]2(Oc3c(O)cc4c(c3C3=C2C(=O)c2c(CCN)c[nH]c2C3=O)[C@H](O)C[N+]4(C)C)C1=O` [EXIGUAMINE B], the Ki is 0.08 µM.
